*1 amine or outer side, *2 acyl side, *3 side chain or, on linkers, in order; H or OH if unused. [ ]: non-standard residue; d: D form. The star is where a group is joined. Kb = biotinyl-L-lysine, O=C(CCCC[C@@H]1SC[C@@H]2NC(=O)N[C@@H]21)NCCCC[C@H](N[*:1])C(=O)[*:2]; 5FAM = O=C1OC2(c3ccc(O)cc3Oc3cc(O)ccc32)c2ccc(C(=O)*)cc21; Ahx = NCCCCCC(=O)O
What was measured:
[1] = Determination of LRET distance from Tb3+ luminescence lifetimes; format: physicochemical; details: for Energy Transfer: E from lifetimes; for Ro: Förster distance; for τDA: Tb3+ luminescence lifetime of donor in presence of acceptor fluorophore; for τD: Tb3+ luminescence lifetime of donor without acceptor fluorophore; for R: estimated distance between Tb3+ and fluorophore
Source text: The Tb^3+ luminescence lifetimes of the biosensors in their fluorophore conjugated and unconjugated forms were used to characterize the energy transfer and LRET parameters for each sensor (FIGS. 12A, 12B and 12C). LRET follows the same principles as FRET and can have the same theory applied to calculate the distance between the fluorophore acceptor and the terbium-peptide complex donor pair. The fundamental concept of Förster theory is resonance energy transfer is proportional to
where the percentage of energy transfer, E, can be determined from the lifetime measurements of the donor in the absence of the acceptor (peptide-terbium complex (donor) without the conjugated fluorophore (acceptor)) and the donor in the presence of the acceptor.
R0 the Förster distance is determined for each acceptor/donor pair and d
The luminescence decay rates peptide biosensor-Tb^3+ complexes with and without fluorophore conjugation are illustrated in FIG. 12A pSAStide-AF488:Tb^3+, FIG. 12B pSAStide-Cy5 and FIG. 12C 5-FAM-pSFAStide-A. Data represent the average±SEM of three individual replicates.

[2] = target: T1, Syk (Homo sapiens, UniProt P43405); experiment: ELISA-based chemifluorescent detection of substrate phosphorylation, Syk; format: biochemical; details: anti-phosphotyrosine 4G10, Amplex Red
T1 construct: EGFP (C)
Protocol: (§1) Phosphorylation of SAStide and SFAStide-A were detected using a chemifluorescent ELISA-based assay (Lipchik et al. J Am Chem. Soc 2015, 137, 2484) in which the reaction mixture was quenched using EDTA and incubated in a 96-well neutravidin coated-plate to allow for affinity capture of the biotinylated substrates individually. The total amount of peptide in the quenched reaction mixture applied to each well was 37.5 pmol, which ensured that each well was saturated with peptide (15 pmol binding capacity) for analysis. The captured peptide was then incubated an anti-phosphotyrosine primary antibody (4G10) followed by a horseradish peroxidase-conjugated secondary antibody. Chemifluorescent detection was accomplished by incubating each well with Amplex Red reagent and hydrogen peroxide in phosphate buffer, which gave a fluorescent signal proportional to the amount of horseradish peroxidase-conjugated antibody in each well, and thus reports the degree of phosphotyrosine present.
(§2) The Validation of in vitro specificity of SAStide-Cy5 and 5-FAM-SFAStide-A using ELISA-based chemifluorescence is illustrated in FIG. 14. […] Aliquots were removed at designated time points, quenched with EDTA and alongside the TR-LRET detection as described in FIGS. 3A-F in the main text, the amount of phosphorylated substrate was also measured using ELISA-based detection.

[3] = target: Lyn (Homo sapiens, UniProt P07948); experiment: ELISA-based chemifluorescent detection of substrate phosphorylation, Lyn; format: biochemical; details: anti-phosphotyrosine 4G10, Amplex Red
Protocol: as §1, §2

Sequence of Lyn (P07948 whole entry, species assumed): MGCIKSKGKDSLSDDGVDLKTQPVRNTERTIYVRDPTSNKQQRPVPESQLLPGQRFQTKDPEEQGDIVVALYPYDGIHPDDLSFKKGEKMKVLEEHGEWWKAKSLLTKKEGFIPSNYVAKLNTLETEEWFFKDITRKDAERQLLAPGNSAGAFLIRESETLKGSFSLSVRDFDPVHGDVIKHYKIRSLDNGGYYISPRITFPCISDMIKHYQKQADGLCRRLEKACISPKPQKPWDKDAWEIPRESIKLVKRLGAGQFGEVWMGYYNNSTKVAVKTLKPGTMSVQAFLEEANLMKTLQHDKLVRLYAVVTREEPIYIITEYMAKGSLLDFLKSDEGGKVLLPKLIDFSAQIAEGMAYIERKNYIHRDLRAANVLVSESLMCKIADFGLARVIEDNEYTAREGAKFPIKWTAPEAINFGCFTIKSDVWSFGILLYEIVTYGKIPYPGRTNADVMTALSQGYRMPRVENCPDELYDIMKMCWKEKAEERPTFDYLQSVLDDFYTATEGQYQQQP

Row | Substance | J [1] | Quantum Yield [1] | Energy Transfer [1] | Ro [1] [Å] | τDA [1] [ms] | τD [1] [ms] | R [1] [Å] | phosphorylation of the substrate by Syk in vitro [2] | phosphorylation of the substrate by Lyn in vitro [3]
1 | GGDEEDYEEPDEPGGCCy5GG [SAStide-Cy5] | 5.4 × 10^13 M^−1 cm^−1 nm^4 | 0.34 | 0.88 | 55.1 | 0.088 | 0.72 | 39.5 | phosphorylated | –
2 | 5-FAM-Ahx-GGEEDEDIYEELDEPGGKbGG ({5FAM-Ahx}-GGEEDEDIYEELDEPGG[Kb]GG-NH2) [5-FAM-SFAStide-A, Src-family kinase peptide biosensor labelled with 5-carboxyfluorescein] | 9.62 × 10^14 M^−1 cm^−1 nm^4 | 0.21 | 0.89 | 56.0 | 0.071 | 0.64 | 39.5 | – | phosphorylated

Source: patent US20160376632A1, “KINASE ACTIVITY DETECTION METHODS” (REGENTS OF THE UNIVERSITY OF MINNESOTA, priority 2014, published 2016)
